# Molecular target: T1, human calpain I (Homo sapiens, UniProt P07384)
# T1 construct: The isolation of calpain from human erythrocytes was similar to that described by Wang et al. (1988); from tissue; host or cells: human red blood cells (packed red cells, American Red Cross); partially purified on DEAE-Sephacel and phenyl-Sepharose CL-4B
# T1 sequence (P07384 1-714): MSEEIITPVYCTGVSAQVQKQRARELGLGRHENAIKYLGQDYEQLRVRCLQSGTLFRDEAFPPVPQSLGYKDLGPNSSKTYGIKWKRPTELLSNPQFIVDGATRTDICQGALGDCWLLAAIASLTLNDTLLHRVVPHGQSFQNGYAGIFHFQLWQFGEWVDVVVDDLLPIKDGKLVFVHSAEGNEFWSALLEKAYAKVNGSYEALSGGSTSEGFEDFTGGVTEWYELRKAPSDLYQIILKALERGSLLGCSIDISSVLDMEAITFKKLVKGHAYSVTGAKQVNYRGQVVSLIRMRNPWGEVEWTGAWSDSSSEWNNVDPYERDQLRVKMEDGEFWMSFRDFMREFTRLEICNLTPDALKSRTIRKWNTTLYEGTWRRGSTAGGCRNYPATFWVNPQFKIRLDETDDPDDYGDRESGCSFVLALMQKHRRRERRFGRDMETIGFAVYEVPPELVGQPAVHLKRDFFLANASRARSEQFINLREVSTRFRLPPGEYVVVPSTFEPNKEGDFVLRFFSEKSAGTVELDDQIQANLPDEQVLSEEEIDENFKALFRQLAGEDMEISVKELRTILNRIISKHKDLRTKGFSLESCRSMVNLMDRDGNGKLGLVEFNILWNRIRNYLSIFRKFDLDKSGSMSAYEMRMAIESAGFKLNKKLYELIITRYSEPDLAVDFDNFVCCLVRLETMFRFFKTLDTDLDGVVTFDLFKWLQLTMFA
# T1 sequence (P04632 1-268 partner): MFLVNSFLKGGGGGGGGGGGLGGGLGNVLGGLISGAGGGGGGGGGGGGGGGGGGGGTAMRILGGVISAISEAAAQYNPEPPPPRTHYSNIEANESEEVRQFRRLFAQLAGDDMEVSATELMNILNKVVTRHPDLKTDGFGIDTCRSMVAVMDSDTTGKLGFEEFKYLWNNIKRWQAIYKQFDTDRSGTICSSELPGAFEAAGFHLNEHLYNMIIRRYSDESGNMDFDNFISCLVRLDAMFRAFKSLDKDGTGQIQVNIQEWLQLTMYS
# Experiment: Calpain I Inhibition Assay (3H-acetyl casein degradation)
# Assay type: biochemical
# Details: human erythrocyte calpain I; 3H-acetyl Casein substrate; 25° C., 2 hours incubation; read-out: IC50 against human calpain I
# Description: Compounds of the present invention were tested for calpain I inhibition activity using the following assay method.
# Calpain I InhibitionAssay
# Isolation of Human erythrocyte Calpain I
# Human red blood cells were obtained from the Northeastern New York Chapter of the American Red Cross. The isolation of calpain from human erythrocytes was similar to that described by Wang et al. (1988). One unit of in-dated packed red cells was diluted with an equal volume of diluting/wash solution and centrifuged. The supernatant was removed and the procedure was repeated. The washed cells were pooled, lysed with 700 mL of lysing solution and centrifuged to remove cell debris. The membrane-free hemolysate was added to 500 mL DEAE-sephacel and the slurry was stirred gently at 4° C. for 1 hour.
# Batch elution was done using DEAE-sephacel wash solution to remove a large amount of unwanted protein, most of which was hemoglobin. The slurry was poured into a column connected in tandem to a phenyl-sepharose CL-4B column. Material eluted from the DEAE-sephacel was applied directly to the phenyl-sepharose CL-4B. The phenyl-sepharose CL-4B column was washed first with 75 mM NaCl and then with no salt. Calpain begins to disassociate from the […] with the 75 mM NaCl but the majority should adhere to the column until the salt is removed. Fractions were collected (20 mL), assayed for caseinolytic activity with and without calpastatin and pooled accordingly. The pooled fractions were concentrated using an Amicon stirred cell equipped with a YK-10 membrane. Calpain was stored at 4° C. with 10 mM EDTA and 5 mM 2-mercaptoethanol and is stable for at least 6 months.
# The tritated assay is a modification of that described by Gopalakrishna, R. and Barsky, S.H., Anal. Biochem., 148, 413,1985. All reagents, compound 25 ul, HEPES buffer 25 ul, CaCl2 50 ul, enzyme 50 ul, and ^3 H-acetyl Casein, were combined in 1 mL polystyrene titer plates. The plates were preincubated at 25° C. for 5 min with gentle shaking prior to the addition of substrate. The incubation was continued for an additional 2 hours and was terminated with the addition of 0.5 mL ice cold 5% TCA. Unlabled casein was added, samples were centrifuged and 0.5 mL of the supernatant was counted in 5 mL of Ready Protein liquid scintillation cocktail for 2 min. This assay measures ^3 H-acetyl Casein degradation as an endpoint for calpain activity.
row,Compound,IC50
1,"NC(=O)c1cn(-c2ccc(O)cc2)c2cc(-c3ccncc3)ccc2c1=O [Example 1, 1,4-Dihydro-1-(4-hydroxyphenyl)-4-oxo-7-(4-pyridinyl)=3-quinolinecarboxamide]",2 µM
2,"NC(=O)c1cn(-c2ccc(O)c(O)c2)c2cc(-c3ccncc3)ccc2c1=O [Example 2, 1,4,Dihydro-1-(3.4-dihydroxyphenyl)-4-oxo-7-(4-pyridinyl),3-quinolinecarboxamide]",7 µM
3,"NC(=O)c1cn(-c2ccc(O)c(Cl)c2)c2cc(-c3ccncc3)ccc2c1=O [Example 3, 1,4-Dihydro-1-(3-chloro-4-hydroxyphenyl)-4-oxo-7-(4-pyridinyl)-3-quinolinecarboxamide]",2 µM
4,"NC(=O)c1cn(-c2ccc(O)cc2F)c2cc(-c3ccncc3)ccc2c1=O [Example 4, 1,4-Dihydro-1-(2-fluoro-4-hydroxyphenyl)-4-oxo-7-(4-pyridinyl)-3-quinolinecarboxamide]",7.4 µM
5,"NC(=O)c1cn(-c2ccc(O)c(F)c2)c2cc(-c3ccncc3)ccc2c1=O [Example 5, 1,4-Dihydro-1-(3-fluoro-4-hydroxyphenyl)-4-oxo-7-(4-pyridinyl)-3-quinolinecarboxamide]",5 µM
6,"Cc1cc(O)ccc1-n1cc(C(N)=O)c(=O)c2ccc(-c3ccncc3)cc21 [Example 6, 1,4-Dihydro-1-(2-methyl-4-hydroxyphenyl)-4-oxo-7-(4-pyridinyl)-3-quinolinecarboxamide]",0.51 µM
7,"NC(=O)c1cn(-c2ccc(O)cc2C(F)(F)F)c2cc(-c3ccncc3)ccc2c1=O [Example 7, 1,4-Dihydro-1-(2-trifluoromethyl-4-hydroxyphenyl)-4-oxo-7-(4-pyridinyl)-3-quinolinecarboxamide]",16 µM
8,"NC(=O)c1cn(-c2ccc(O)cc2Cl)c2cc(-c3ccncc3)ccc2c1=O [Example 8, 1,4-Dihydro-1-(2-chloro-4-hydroxyphenyl)-4-oxo-7-(4-pyridinyl)-3-quinolinecarboxamide]",0.6 µM
9,"NC(=O)c1cn(-c2ccc(O)cc2Cl)c2cc(-c3cccnc3)ccc2c1=O [Example 9, 1,4,Dihydro-1-(2-chloro-4-hydroxyphenyl)-4-oxo-7-(3-pyridinyl)-3-quinolinecarboxamide]",12 µM
10,"NC(=O)c1cn(-c2ccc(O)cc2Cl)c2cc(-c3ccoc3)ccc2c1=O [Example 10, 1,4-Dihydro-1-(2-chloro-4-hydroxyphenyl)-4-oxo-7-(3-furyl)-3-quinolinecarboxamide]",1.7 µM
11,NC(=O)c1cn(-c2ccc(O)cc2Cl)c2cc(-c3ccncc3Cl)ccc2c1=O [Example 11],1.7 µM
12,"NC(=O)c1cn(-c2ccc(O)cc2Cl)c2cc(-c3ccnnc3)ccc2c1=O [Example 12, 1,4-Dihydro-1-(2-chloro-4-hydroxyphenyl)-4-oxo-7-(4-pyridazinyl)-3-quinolinecarboxamide]",1.7 µM
13,"NC(=O)c1cn(-c2ccc(O)cc2Cl)c2cc(-c3cc[nH]n3)ccc2c1=O [Example 13, 1,4-Dihydro-1-(2-chloro-4-hydroxyphenyl)-4-oxo-7-(3-pyrazolyl)-3-quinolinecarboxamide]",0.57 µM
